Test results published in patent publication US20110136842A1, “Substituted Dihydroisoquinolinone and Isoquinolinedione Derivatives as Calcium Channel Blockers” (priority 2008, published 2011).

These molecules were tested against T1, Human Cav2.2 channels (Homo sapiens, UniProt Q00975) (assay: Fluorescent assay for Cav2.2 channels using potassium depolarization to initiate channel opening). Conditions: assay of Example 1 in the presence of 30 mM potassium (inactivated channel state).
T1 construct: expressed in transfected cells
T1 sequence (Q00975 whole entry): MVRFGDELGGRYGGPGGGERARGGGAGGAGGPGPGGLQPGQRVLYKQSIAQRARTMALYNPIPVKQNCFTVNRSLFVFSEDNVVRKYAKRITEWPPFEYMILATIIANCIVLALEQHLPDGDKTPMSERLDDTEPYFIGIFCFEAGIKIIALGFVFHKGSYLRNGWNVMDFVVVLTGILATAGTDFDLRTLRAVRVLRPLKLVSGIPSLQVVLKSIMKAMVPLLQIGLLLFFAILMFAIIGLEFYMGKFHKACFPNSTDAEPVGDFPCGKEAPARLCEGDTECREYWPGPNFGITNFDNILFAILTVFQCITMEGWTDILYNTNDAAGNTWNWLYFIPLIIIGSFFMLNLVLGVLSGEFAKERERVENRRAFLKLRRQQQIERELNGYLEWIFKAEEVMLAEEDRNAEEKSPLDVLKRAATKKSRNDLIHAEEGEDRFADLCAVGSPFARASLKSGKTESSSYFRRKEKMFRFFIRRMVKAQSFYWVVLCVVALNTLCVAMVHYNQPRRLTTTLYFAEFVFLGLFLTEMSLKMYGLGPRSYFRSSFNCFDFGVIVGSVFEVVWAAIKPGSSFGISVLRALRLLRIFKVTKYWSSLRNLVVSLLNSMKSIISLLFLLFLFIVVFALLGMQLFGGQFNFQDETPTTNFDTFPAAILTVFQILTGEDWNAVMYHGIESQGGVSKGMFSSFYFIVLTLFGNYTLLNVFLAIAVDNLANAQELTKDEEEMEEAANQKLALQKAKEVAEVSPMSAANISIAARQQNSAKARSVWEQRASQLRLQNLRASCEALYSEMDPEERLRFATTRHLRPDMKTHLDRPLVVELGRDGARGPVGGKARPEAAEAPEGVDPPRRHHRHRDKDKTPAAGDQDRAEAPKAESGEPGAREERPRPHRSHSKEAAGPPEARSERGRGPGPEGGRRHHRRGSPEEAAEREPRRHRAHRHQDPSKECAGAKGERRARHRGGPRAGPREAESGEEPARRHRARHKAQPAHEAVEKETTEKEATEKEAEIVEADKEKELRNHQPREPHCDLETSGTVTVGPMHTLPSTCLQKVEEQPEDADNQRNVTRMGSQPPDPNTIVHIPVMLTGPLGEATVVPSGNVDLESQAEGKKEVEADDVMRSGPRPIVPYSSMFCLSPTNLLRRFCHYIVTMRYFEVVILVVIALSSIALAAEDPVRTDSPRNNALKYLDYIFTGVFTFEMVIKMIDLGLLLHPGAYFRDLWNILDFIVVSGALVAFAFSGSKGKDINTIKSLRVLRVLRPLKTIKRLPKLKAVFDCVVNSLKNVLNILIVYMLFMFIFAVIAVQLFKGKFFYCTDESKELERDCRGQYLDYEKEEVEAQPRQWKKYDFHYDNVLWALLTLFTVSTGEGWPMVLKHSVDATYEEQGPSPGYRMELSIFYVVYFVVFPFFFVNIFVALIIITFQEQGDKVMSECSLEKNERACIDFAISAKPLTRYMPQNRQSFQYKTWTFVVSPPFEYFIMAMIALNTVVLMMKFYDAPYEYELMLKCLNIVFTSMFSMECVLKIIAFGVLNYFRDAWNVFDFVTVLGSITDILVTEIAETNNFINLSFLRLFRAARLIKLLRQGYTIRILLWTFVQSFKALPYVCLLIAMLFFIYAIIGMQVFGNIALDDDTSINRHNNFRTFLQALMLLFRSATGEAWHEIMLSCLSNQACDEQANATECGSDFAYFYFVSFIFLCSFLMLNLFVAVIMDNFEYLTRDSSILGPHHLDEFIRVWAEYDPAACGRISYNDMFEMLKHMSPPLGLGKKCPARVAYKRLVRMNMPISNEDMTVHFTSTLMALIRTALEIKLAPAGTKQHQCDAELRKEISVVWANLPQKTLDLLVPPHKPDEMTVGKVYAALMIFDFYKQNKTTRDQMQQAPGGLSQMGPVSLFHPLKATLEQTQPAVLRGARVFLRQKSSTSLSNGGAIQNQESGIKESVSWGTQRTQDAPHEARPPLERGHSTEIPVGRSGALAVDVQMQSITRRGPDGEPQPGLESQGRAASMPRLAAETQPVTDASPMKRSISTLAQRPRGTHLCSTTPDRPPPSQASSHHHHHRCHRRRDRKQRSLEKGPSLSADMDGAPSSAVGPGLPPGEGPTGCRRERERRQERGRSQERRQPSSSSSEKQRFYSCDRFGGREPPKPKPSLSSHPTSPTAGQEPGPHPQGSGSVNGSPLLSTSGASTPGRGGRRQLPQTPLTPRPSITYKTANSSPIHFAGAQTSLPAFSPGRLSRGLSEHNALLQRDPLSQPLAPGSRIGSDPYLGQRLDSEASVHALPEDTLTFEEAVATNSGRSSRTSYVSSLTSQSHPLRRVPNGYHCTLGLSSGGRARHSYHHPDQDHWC
Assay type: cell-based
From the text: Human Cav2.2 channels were stably expressed in HEK293 cells along with alpha2-delta and beta subunits of voltage-gated calcium channels. An inwardly rectifying potassium channel (Kir2.3) was also expressed in these cells to allow more precise control of the cell membrane potential by extracellular potassium concentration. At low bath potassium concentration, the membrane potential is relatively negative, and is depolarized as the bath potassium concentration is raised. In this way, the bath potassium concentration can be used to regulate the voltage-dependent conformations of the channels. Compounds are incubated with cells in the presence of low (4 mM) potassium or elevated (12, 25 or 30 mM) potassium to determine the affinity for compound block of resting (closed) channels at 4 mM potassium or affinity for block of open and inactivated channels at 12, 25 or 30 mM potassium. After the incubation period, Cav2.2 channel opening is triggered by addition of higher concentration of potassium (70 mM final concentration) to further depolarize the cell. The degree of state-dependent block can be estimated from the inhibitory potency of compounds after incubation in different potassium concentrations.
Calcium influx through Cav2.2 channels is determined using a calcium-sensitive fluorescent dye in combination with a fluorescent plate reader. Fluorescent changes were measured with either a VIPR (Aurora Instruments) or FLIPR (Molecular Devices) plate reader.
• 1. Seed cells in Poly-D-Lysine Coated 96- or 384-well plate and keep in a 37° C.-10% CO2 incubator overnight • 2. Remove media, wash cells with 0.2 mL (96-well plate) or 0.05 mL (384-well plate) Dulbecco's Phosphate Buffered Saline (D-PBS) with calcium & magnesium (Invitrogen; 14040) • 3. […] Read cell plate on VIPR instrument, Excitation=480 nm, Emission=535 nm • 9. With VIPR continuously reading, add 0.1 mL (96-well plate) or 0.03 mL (384-well plate) of Depolarization Buffer, which is 2× the final assay concentration, to the cell plate.
Work on `CC1(Cc2cc(F)cc(F)c2F)C(=O)NCc2ccc(-c3cccc(OCC(F)(F)F)c3)cc21` (stereo not drawn) [Example 1, 4-methyl-4-(2,3,5-trifluorobenzyl)-6-[3-(2,2,2-trifiuoroethoxy)phenyl]-1,4-dihydroisoquinolin-3(2H)-one] yielded an IC50 of 230 nM.
With `CC1(Cc2cc(F)cc(F)c2F)C(=O)NC(=O)c2ccc(-c3cccc(OCC(F)(F)F)c3)cc21` (stereo not drawn) [Example 2, 4-methyl-4-(2,3,5-trifluorobenzyl)-6-[3-(2,2,2-trifluoroethoxy)phenyl]isoquinoline-1,3(2H,4H)-dione] the IC50 was 260 nM.
`Cn1cnc(N2Cc3ccc(-c4cccc(OCC(F)(F)F)c4)cc3C(C)(Cc3cc(F)cc(F)c3F)C2=O)c1` (stereo not drawn) [Example 3, 4-methyl-2-(1-methyl-1H-imidazol-4-yl)-4-(2,3,5-trifluorobenzyl)-6-[3-(2,2,2-trifiuoroethoxy)phenyl]-1,4-dihydroisoquinolin-3(2H)-one] showed an IC50 of 20 nM.
